Measurements: patent US20180325914A1, “INCREASING STORAGE OF VITAMIN A, VITAMIN D AND/OR LIPIDS” (Salk Institute for Biological Studies, priority 2014, published 2018)

Experiments:
[1] = test system: BRD2, BRD3, BRD4 (BETs) occupancy on chromatin; format: cell-based, human; conditions: LX-2 cells; 500 nM, 16 hr
Experimental: Cells were then harvested for ChIP assay. The experimental procedure for ChIP was as previously described.
The procedure was as previously described^5,31. Briefly, short DNA reads were demultiplexed using the Illumina CASAVA v1.8.2. […] Only tags that map uniquely to the genome were considered for further analysis. Subsequent peak calling and motif analysis were conducted using HOMER, a software suite for ChIP-Seq analysis. The methods for HOMER, which are described below, have been implemented and are freely available on the internet (biowhat.ucsd.edu/homer/). One tag from each unique position was considered to eliminate peaks resulting from clonal amplification of fragments during the ChIP-Seq protocol. Peaks were identified by searching for clusters of tags within a sliding 200 bp window, requiring adjacent clusters to be at least 1 kb away from each other. The threshold for the number of tags that determine a valid peak was selected for a false discovery rate of <0.01, as empirically determined by repeating the peak finding procedure using randomized tag positions. […] Peaks are annotated to gene products by identifying the nearest RefSeq transcriptional start site. Visualization of ChIP-Seq results was achieved by uploading custom tracks onto the UCSC genome browser.
BETs are chromatin regulators^7.

[2] = test system: C57BL/6J mice; assay: CCl4 model of liver injury and fibrosis, preventive study; format: in vivo, mouse; conditions: JQ1 50 mg/kg IP
Experimental: (§1) The animals were terminated 72 hours after the final CCl4 injection and whole livers were collected for histological, cytological, biochemical and molecular analyses.
(§2) 5 μm sections of formalin-fixed liver were stained following standard hematoxylin-eosin (H&E) and Sirius Red methods and reviewed by a pathologist who was blinded to the experimental conditions. Fibrosis was scored using the Ishak modified histological activity index (HAI) scoring system. Liver fibrosis was also quantified using Image J software on 10 non-contiguous Sirius Red stained sections. […] fibrosis was quantified using hydroxyproline assay. All images were obtained using a high-resolution Leica DFC420 digital camera mounted on an Olympus microscope equipped with ×4/0.13, ×10/0.30, ×20/0.50 and ×40/0.75 UplanFL N plan objective lenses and processed with the Leica Application Suite. Tissue hydroxyproline content was measured using a kit from Biovision (K555-100).
(§3) Liver samples were deparaffinized and rehydrated in PBS. Following antigen retrieval with the target retrieval solution (Dako, Glostrup, Denmark), endogenous peroxidase activity was blocked by incubation with 0.3% hydrogen peroxide. […]

[3] = test system: primary HSCs; assay: qRT-PCR gene expression in primary murine HSCs; format: cell-based, mouse; conditions: JQ1 500 nM, RT-qPCR
[4] = test system: pro-fibrotic gene expression (COL1A1) in LX-2 cells; assay: qRT-PCR of pro-fibrotic gene expression in LX-2 cells; conditions: JQ1 500 nM, 16 hr vs DMSO
[5] = test system: C57BL/6J mice; assay: CCl4 model of liver fibrosis, therapeutic study; format: in vivo, mouse; conditions: JQ1 50 mg/kg IP
Experimental: as §1, §2, §3
Therefore, the ability of JQ1 to prevent progression of ongoing liver fibrosis was determined. […]

[6] = test system: primary murine HSCs; assay: Immunocytochemistry (Acta2) of HSC activation into myofibroblasts; format: cell-based, mouse; conditions: day 6, JQ1 500 nM
Experimental: Primary murine HSCs were seeded onto chamber slides (Nunc). […] Media was aspirated, cells were washed twice with PBS (Gibco) and fixed in 10% buffered formalin at room temperature for 15 minutes. Fixative was removed and cells were washed three times with PBS. The slides were then blocked with 3% BSA and incubated with rabbit anti-ACTA2 antibody (at 1:100 dilution; Abcam) overnight at 4° C. After washing, the slides were incubated for 1 hour with Alexa Fluor546-labeled donkey anti-rabbit IgG antibody (at 1:200 dilution; Invitrogen). Finally, the slides were analyzed for fluorescence using an all-in-one type fluorescent microscope (BioZero BZ-9000; Keyence, Osaka, Japan). Nuclear counterstaining was performed using DAPI (Vector).

[7] = test system: primary murine HSCs; assay: Lipid droplet accumulation assay (BODIPY staining); format: cell-based, mouse; conditions: day 6, JQ1 500 nM
Experimental: Primary murine HSCs were seeded onto chamber slides (Nunc). […] Media was aspirated, cells were washed twice with PBS (Gibco) and fixed in 10% buffered formalin at room temperature for 15 minutes. Fixative was removed and cells were washed three times with PBS. […] Dye was removed and cells were washed three times with PBS, then mounted using Vectastain mounting medium (Vector Labs). Fluorescence was visualized through the GFP filter on a Leica DM5000B fluorescent microscope. Nuclear counterstaining was performed using DAPI (Vector).

[8] = test system: primary HSCs; assay: Cell proliferation assay (BrdU), primary HSCs; format: cell-based, mouse; conditions: JQ1 500 nM
Excerpt: BrdU-positive cells were counted under fluorescent microscope (Olympus, IX51).

[9] = test system: primary HSCs; assay: Cell viability assay (CellTiter Glo), primary HSCs; format: cell-based, mouse; conditions: dose-dependent manner
Experimental: Primary HSCs or LX-2 cells were seeded onto 96-well tissue culture plates.

[10] = test system: C57BL/6J mice; assay: Serum alanine aminotransferase (ALT) assay in CCl4 model; format: in vivo, mouse; conditions: preventive CCl4 model; JQ1 50 mg/kg IP
Experimental: as §1
The ALT activity in mice serum was measured using a kit from Thermo Scientific (TR71121).

SMILES: Cc1sc2c(c1C)C(c1ccc(Cl)cc1)=N[C@@H](CC(=O)OC(C)(C)C)c1nnc(C)n1-2 [JQ1, (S)-tert-butyl 2-(4-(4-chlorophenyl)-2,3,9-trimethyl-6H-thieno[3,2-f][1,2,4]triazolo[4,3-a][1,4]diazepin-6-yl)acetate]
- BET occupancy at the COL1A1 enhancer locus (ChIP) [1]: significantly diminished
- PAF1 and CDK9 (elongation cofactors) on chromatin [1]: displaced
- occupancy of BETs on chromatin (ChIP-Seq) [1]: dramatically reduces
- recruitment of serine 2 phosphorylated form (S2p) of RNA Pol II [1]: specific decrease
- sensitivity of BRD4 occupancy on super-enhancer regions to reduction, versus control enhancer regions [1]: more sensitive
- serine 5 Pol II phospho-form (S5p) [1]: little change
- liver fibrosis and markers of HSC activation ([2]; CCl4/JQ1 co-treated vs CCl4 mice, four weeks, Sirius red, hydroxyproline, Acta2, Ishak score): dramatic reduction
- CCl4-induced key fibrotic marker genes in liver (mRNA-Seq) [2]: significant suppression
- Ccnd2 and Myc expression [3]: without perturbing
- induction of Pdgfrb and Ccnd1 during HSC activation [3]: disrupted induction
- repression of COL1A1 [4]: 4.5 fold
- progression of liver fibrosis (histological scoring, Sirius red, hydroxyproline, marker gene expression) ([5]; CCl4 three weeks, then CCl4/JQ1 co-treatment for three weeks): blocked the progression
- CCl4-induced HSC activation (quantitative Acta2 immunohistochemistry) ([5]; chronic CCl4): dramatically reduced
- HSCs transdifferentiation into myofibroblasts, phenotypically (morphology, Acta2 distribution) [6]: dramatically arrested
- morphology, Acta2 distribution and lipid content of treated cells [7]: closely resembled quiescent (day 1) cells
- BrdU incorporation into activated HSCs [8]: significant decrease
- anti-proliferative activity against activated HSCs [9]: significant anti-proliferative activity
- liver injury due to CCl4 assessed by serum ALT [10]: not significantly impacted
